Key:
Test in all cases: relative viability (nuclei count vs DMSO), 5 days (fraction); higher = more cells survive
BI-2536 + Crizotinib = compound: CC[C@@H]1C(=O)N(C)c2cnc(Nc3ccc(C(=O)NC4CCN(C)CC4)cc3OC)nc2N1C1CCCC1 [BI-2536] + C[C@@H](Oc1cc(-c2cnn(C3CCNCC3)c2)cnc1N)c1c(Cl)ccc(F)c1Cl [Crizotinib] (partner 1 µM)
How it was run: (§1)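 Lung cancer cell lines were pin-tool dosed in 1536-well plates on the day after seeding, with either a lone drug or a fixed anchor-drug dose plus five library-drug doses (not always all listed) in √10 steps. Nuclei were counted on 4× images after 5 days. Relative viability is the ratio of treated-well to vehicle-well nuclei counts, with each value a median of duplicate plates.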

BI-2536 + Foretinib = compound: CC[C@@H]1C(=O)N(C)c2cnc(Nc3ccc(C(=O)NC4CCN(C)CC4)cc3OC)nc2N1C1CCCC1 [BI-2536] + COc1cc2c(Oc3ccc(NC(=O)C4(C(=O)Nc5ccc(F)cc5)CC4)cc3F)ccnc2cc1OCCCN1CCOCC1 [Foretinib] (partner 0.25 µM)
How it was run: as §1

[1] = compound: CC1CC(=O)N(C2=CN=C(N=C2N1C3CCCC3)NC4=C(C=C(C=C4)C(=O)NC5CCN(CC5)C)OC)C [NPK76-II-72-1] + Cc1nc(NC(=O)N2CCC[C@H]2C(N)=O)sc1-c1ccnc(C(C)(C)C(F)(F)F)c1 [Alpelisib] (partner 2 µM)
How it was run: as §1

[2] = compound: CC1CC(=O)N(C2=CN=C(N=C2N1C3CCCC3)NC4=C(C=C(C=C4)C(=O)NC5CCN(CC5)C)OC)C [NPK76-II-72-1] + Cc1nc(Nc2ncc(C(=O)Nc3c(C)cccc3Cl)s2)cc(N2CCN(CCO)CC2)n1 [Dasatinib] (partner 0.075 µM)
How it was run: as §1

| Cell Line | relative viability (BI-2536 + Crizotinib; first compound 0.01 µM) | relative viability (BI-2536 + Crizotinib; first compound 0.03162 µM) | relative viability (BI-2536 + Crizotinib; first compound 0.1 µM) | relative viability (BI-2536 + Crizotinib; first compound 0.3162 µM) | relative viability (BI-2536 + Crizotinib; first compound 1 µM) | relative viability (BI-2536 + Foretinib; first compound 0.01 µM) | relative viability (BI-2536 + Foretinib; first compound 0.03162 µM) | relative viability (BI-2536 + Foretinib; first compound 0.1 µM) | relative viability (BI-2536 + Foretinib; first compound 0.3162 µM) | relative viability (BI-2536 + Foretinib; first compound 1 µM) | relative viability ([1]; first compound 0.01 µM) | relative viability ([1]; first compound 0.03162 µM) | relative viability ([1]; first compound 0.1 µM) | relative viability ([1]; first compound 0.3162 µM) | relative viability ([1]; first compound 1 µM) | relative viability ([2]; first compound 0.01 µM) | relative viability ([2]; first compound 0.03162 µM) | relative viability ([2]; first compound 0.1 µM) | relative viability ([2]; first compound 0.3162 µM) | relative viability ([2]; first compound 1 µM) |
| --- | --- | --- | --- | --- | --- | --- | --- | --- | --- | --- | --- | --- | --- | --- | --- | --- | --- | --- | --- | --- |
| Calu-6 | 0.713 | 0.4 | 0.273 | 0.113 | 0.102 | 0.8 | 0.613 | 0.281 | 0.0815 | 0.0737 | 0.952 | 1.03 | 1.05 | 0.972 | 1.14 |  |  |  |  |  |
| ChaGo-K-1 | 1.05 | 0.693 | 0.704 | 0.299 | 0.303 | 0.851 | 0.972 | 0.687 | 0.164 | 0.217 |  |  |  |  |  | 0.577 | 0.624 | 0.505 | 0.53 | 0.596 |
| EBC-1 | 0.194 | 0.14 | 0.175 | 0.141 | 0.145 | 0.0994 | 0.0943 | 0.0905 | 0.0859 | 0.0908 | 0.927 | 0.931 | 0.828 | 0.836 | 0.906 |  |  |  |  |  |
| EKVX | 1.01 | 0.745 | 1.07 | 0.217 | 0.147 | 0.702 | 0.833 | 0.755 | 0.237 | 1.08 | 0.796 | 0.897 | 0.884 | 0.716 | 1.1 | 0.58 | 0.528 | 0.519 |  | 0.652 |
| EMC-BAC-2 | 0.882 | 0.791 | 0.701 | 0.174 | 0.145 | 1.03 | 1.18 | 0.947 | 0.202 | 0.194 | 0.723 | 0.764 | 0.786 | 0.668 | 0.774 | 0.345 | 0.295 | 0.346 | 0.333 | 0.367 |
| EPLC-272H | 0.901 | 0.577 |  | 0.0723 | 0.093 | 0.715 | 0.0998 | 0.0735 | 0.0644 | 0.0639 | 0.854 | 0.88 | 0.964 | 0.928 | 0.88 | 0.318 |  | 0.332 | 0.251 | 0.357 |
| H3255 | 0.909 | 0.763 | 0.515 | 0.196 | 0.24 | 0.769 | 1.03 | 0.49 | 0.261 | 0.218 | 0.683 | 0.663 | 0.721 |  | 0.934 | 0.406 | 0.314 | 0.323 | 0.245 | 0.35 |
| HARA | 1.03 | 1.07 | 0.636 | 0.139 | 0.196 | 0.97 | 1.07 | 0.746 | 0.0569 | 0.0893 | 0.783 | 0.975 | 0.822 | 0.523 | 0.983 | 0.254 | 0.233 | 0.168 | 0.237 | 0.219 |
| HCC-15 | 0.82 | 0.64 | 0.426 | 0.134 | 0.118 | 0.854 | 0.648 | 0.361 | 0.137 | 0.143 | 0.828 | 0.965 | 0.875 | 0.919 | 0.97 | 0.598 | 0.637 | 0.599 | 0.642 | 0.649 |

— the supplement of paper PMC10307832
